Among the test systems are HCT-15; Hs-578T; IGROV-1; KM12; LOX IMVI; MCF7; MDA-MB-231; NCI-H460; PC-3; RXF 393; SF-268; SK-MEL-2; SNB-19; SW-620; TK-10; UACC-257.
Common to all, as to assay: growth of human tumour cells (NCI), 48 h

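Growth conditions: 96-well plates. Treatment: test compound, 48 hours, 5 concentrations. Analysis: linear interpolation between bracketing concentrations; unreached endpoints set to highest concentration. Abbreviation: GI50, concentration required for 50% inhibition of growth.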 Activity calls are given as the source filed them. No stated cut-off is given here; in the data, active = GI50 up to about 1.1 µM and inactive = higher.

Regarding `C=C(Br)CN(C)CC(=C)Br`, the GI50 is over 100 µM in the assay on HCT-15; > 100 µM (inactive) with Hs-578T; > 100 µM (inactive) in the assay with IGROV-1; > 100 µM (inactive) in the assay on KM12; > 100 µM (inactive) in the assay with LOX IMVI; > 100 µM (inactive) with MCF7. Besides, the GI50 in the assay on MDA-MB-231, in the assay on NCI-H460, in the assay on PC-3, in the assay on RXF 393, in the assay with SF-268 and with SK-MEL-2 was > 100 µM (inactive) in each case. Besides, the GI50 is > 100 µM (inactive) in the assay with SNB-19, > 100 µM (inactive) in the assay on SW-620, 50.1 µM (inactive) in the assay on TK-10 and > 100 µM (inactive) with UACC-257.
In the case of `CN(C)c1ccc(/C=C/c2ccnc3ccc4ccccc4c23)cc1`, the GI50 with HCT-15 was 45.9 µM; in the assay with Hs-578T, 36.6 µM (inactive); in the assay on IGROV-1, 12.7 µM (inactive); in the assay with KM12, 33.3 µM (inactive); in the assay with LOX IMVI it was 43.9 µM (inactive); in the assay on MCF7, 0.0873 µM (active). In addition, the GI50 was 34.5 µM (inactive) in the assay on MDA-MB-231; 29.6 µM (inactive) in the assay on NCI-H460; 92.5 µM (inactive) with PC-3; 17.7 µM (inactive) in the assay with RXF 393; 39.7 µM (inactive) in the assay on SF-268; 25.6 µM (inactive) in the assay on SK-MEL-2. Besides, the GI50 in the assay with SNB-19 was 33.9 µM (inactive); in the assay on SW-620 it was 47 µM (inactive); in the assay with TK-10, 19.1 µM (inactive); in the assay with UACC-257, 89.5 µM (inactive).
`COC(=O)C1(F)C(=O)NC(=O)NC1O` (configuration not stated): the GI50 in the assay with HCT-15 is 61.5 µM; with Hs-578T, > 100 µM (inactive); in the assay on IGROV-1 it was > 100 µM (inactive); in the assay on KM12, 50.2 µM (inactive); in the assay with LOX IMVI it was > 100 µM (inactive); in the assay with MCF7, 10.7 µM (inactive). In addition, the GI50 with MDA-MB-231 is > 100 µM (inactive); in the assay on NCI-H460, 50.6 µM (inactive); with PC-3, 50.8 µM (inactive); in the assay with RXF 393, > 100 µM (inactive); in the assay on SF-268, > 100 µM (inactive); in the assay with SK-MEL-2, > 100 µM (inactive). In addition, the GI50 was > 100 µM (inactive) in the assay on SNB-19, > 77.6 µM (inactive) in the assay on SW-620, > 100 µM (inactive) in the assay with TK-10 and > 100 µM (inactive) in the assay with UACC-257.
As for `CC/C=C/C[C@H](O[Si](C)(C)C(C)(C)C)[C@H]1C[C@H]2O[C@H]([C@@H](O)C#C[Si](C)(C)C)C[C@H]2O1`, the GI50 was 13.7 µM with HCT-15; 15.3 µM (inactive) in the assay on Hs-578T; 14.3 µM (inactive) in the assay with IGROV-1; 17.9 µM (inactive) in the assay on KM12; 10.4 µM (inactive) in the assay on LOX IMVI; 6.92 µM (inactive) with MCF7. Further, the GI50 in the assay with MDA-MB-231 was 14.9 µM (inactive); in the assay on NCI-H460, 15.8 µM (inactive); in the assay on PC-3 it was 12.9 µM (inactive); with RXF 393, 6.65 µM (inactive); with SF-268, 13.8 µM (inactive); with SK-MEL-2 it was 15.5 µM (inactive). Further, the GI50 in the assay on SNB-19 was 13.8 µM (inactive); with SW-620, 16.6 µM (inactive); with TK-10 it was 15.2 µM (inactive); with UACC-257 it was 9.75 µM (inactive).
Turning to `C=C(Br)CN(CC(=C)Br)C(C)=O`, the GI50 is over 100 µM in the assay with HCT-15; > 100 µM (inactive) with Hs-578T; > 100 µM (inactive) in the assay with IGROV-1; > 100 µM (inactive) in the assay with KM12; > 100 µM (inactive) with LOX IMVI; > 100 µM (inactive) in the assay with MCF7. Besides, the GI50 was > 100 µM (inactive) in the assay with MDA-MB-231; > 100 µM (inactive) in the assay on NCI-H460; 81.8 µM (inactive) in the assay with PC-3; > 100 µM (inactive) in the assay with RXF 393; > 100 µM (inactive) in the assay with SF-268; > 100 µM (inactive) in the assay on SK-MEL-2. The GI50 in the assay with SNB-19 is 78.9 µM (inactive); in the assay on SW-620, > 100 µM (inactive); in the assay with TK-10, > 100 µM (inactive); with UACC-257, > 100 µM (inactive).
Regarding `CN(C)c1ccc(C2SCC(=O)N2c2nc3cc4sc(N5C(=O)CSC5c5ccc(N(C)C)cc5)nc4cc3s2)cc1` (configuration not stated), the GI50 with HCT-15 is 8.87 µM; in the assay on Hs-578T, 47.2 µM (inactive); in the assay with IGROV-1, 29.3 µM (inactive); in the assay with KM12, 39.5 µM (inactive); in the assay on LOX IMVI, 43.9 µM (inactive); with MCF7, 12 µM (inactive). The GI50 is > 51.8 µM (inactive) with MDA-MB-231; 1.53 µM (inactive) in the assay with NCI-H460; 38.1 µM (inactive) in the assay with PC-3; > 100 µM (inactive) in the assay on RXF 393; 75.7 µM (inactive) with SF-268; > 100 µM (inactive) with SK-MEL-2. The GI50 in the assay with SNB-19 is 41.4 µM (inactive); with SW-620 it was 8.02 µM (inactive); in the assay on TK-10, > 100 µM (inactive); in the assay on UACC-257, > 25.5 µM (inactive).
Consider `O=C(/C=C/c1ccccc1)Oc1cccc(O)c1`, for which the GI50 with HCT-15 is 16.6 µM; with Hs-578T, 25.9 µM (inactive); with IGROV-1, 17.3 µM (inactive); in the assay with KM12, 19.1 µM (inactive); in the assay with LOX IMVI it was 27.5 µM (inactive); in the assay with MCF7, 38.7 µM (inactive). The GI50 is 47.9 µM (inactive) in the assay with MDA-MB-231; > 100 µM (inactive) in the assay on NCI-H460; > 100 µM (inactive) in the assay with PC-3; > 100 µM (inactive) in the assay with RXF 393; 15.5 µM (inactive) in the assay with SF-268; > 100 µM (inactive) in the assay on SK-MEL-2. Further, the GI50 in the assay with SNB-19 is 20.2 µM (inactive); in the assay on SW-620 it was 18.3 µM (inactive); in the assay with TK-10 it was > 100 µM (inactive); in the assay with UACC-257, > 100 µM (inactive).
Take `NC(=O)c1oc([N+](=O)[O-])c(-c2ccccc2)c1-c1ccccc1`: the GI50 with HCT-15 was 15.5 µM; with Hs-578T, 0.0752 µM (active); with IGROV-1, 12.9 µM (inactive); in the assay with KM12, 13.6 µM (inactive); with LOX IMVI, 14.1 µM (inactive); with MCF7, 29.5 µM (inactive). Besides, the GI50 with MDA-MB-231 is 13.5 µM (inactive); in the assay on NCI-H460 it was 26.2 µM (inactive); with PC-3 it was 15.5 µM (inactive); with RXF 393, 31.6 µM (inactive); with SF-268 it was 37.6 µM (inactive); in the assay with SK-MEL-2, 15.6 µM (inactive). Besides, the GI50 is 38.5 µM (inactive) in the assay with SNB-19, 27 µM (inactive) in the assay with SW-620, 28.6 µM (inactive) in the assay on TK-10 and 18 µM (inactive) with UACC-257.
With `CCCCCCOP(=O)(OCCCCCC)C(NC(=O)OCC)(C(F)(F)F)C(F)(F)F`, the GI50 with HCT-15 was 30.4 µM; in the assay on Hs-578T it was 51.5 µM (inactive); in the assay with IGROV-1 it was 34 µM (inactive); with KM12, 39.1 µM (inactive); in the assay on LOX IMVI, 24.6 µM (inactive); with MCF7 it was 37.2 µM (inactive). In addition, the GI50 in the assay with MDA-MB-231 is 24.3 µM (inactive); in the assay with NCI-H460, 30.3 µM (inactive); in the assay on PC-3, 33.3 µM (inactive); with RXF 393, 11.7 µM (inactive); with SF-268 it was 40.6 µM (inactive); with SK-MEL-2, 22.9 µM (inactive). The GI50 was 39.4 µM (inactive) in the assay on SNB-19, 33.3 µM (inactive) with SW-620 and 43.7 µM (inactive) in the assay with TK-10.
On to `C=C(C)COc1ccc2c(c1)CCC1C2CCC2(C)C(=O)/C(=N/O)CC12` (configuration not stated), for which the GI50 in the assay with HCT-15 was 2.41 µM; with Hs-578T, 3.67 µM (inactive); with IGROV-1, 1.61 µM (inactive); in the assay with KM12, 2.19 µM (inactive); in the assay on LOX IMVI it was 3.08 µM (inactive); in the assay on MCF7, 2.9 µM (inactive). Also, the GI50 in the assay with MDA-MB-231 was 1.66 µM (inactive); in the assay with NCI-H460, 1.57 µM (inactive); with PC-3, 2.6 µM (inactive); in the assay on RXF 393, 1.19 µM (inactive); in the assay with SF-268, 3.81 µM (inactive); in the assay with SK-MEL-2, 4.14 µM (inactive). Besides, the GI50 with SNB-19 was 11.8 µM (inactive); in the assay on SW-620, 1.99 µM (inactive); with TK-10, 1.35 µM (inactive); with UACC-257, 11.3 µM (inactive).
Regarding `CC(C)/C(=N\[N+](C)(C)C)c1ccccc1`, the GI50 is over 100 µM in the assay with HCT-15; > 100 µM (inactive) with Hs-578T; > 100 µM (inactive) in the assay on IGROV-1; > 100 µM (inactive) in the assay with KM12; > 100 µM (inactive) in the assay with LOX IMVI; > 100 µM (inactive) in the assay with MCF7. Also, the GI50 in the assay on MDA-MB-231, with NCI-H460, in the assay with PC-3, in the assay on RXF 393, in the assay with SF-268 and with SK-MEL-2 was > 100 µM (inactive) each time. Moreover, the GI50 in the assay on SNB-19, with SW-620, in the assay with TK-10 and in the assay on UACC-257 was > 100 µM (inactive) throughout.
Turning to `O=C1NC(=O)C(CC2CCCCCCCCCCC2=O)C(=O)N1` (configuration not stated), the GI50 is over 100 µM in the assay with HCT-15; > 100 µM (inactive) in the assay with Hs-578T; > 100 µM (inactive) with IGROV-1; > 100 µM (inactive) in the assay with KM12; > 100 µM (inactive) in the assay with LOX IMVI; > 100 µM (inactive) with MCF7. The GI50 in the assay with MDA-MB-231, in the assay on NCI-H460, in the assay with PC-3, with RXF 393, with SF-268 and in the assay on SK-MEL-2 was > 100 µM (inactive) in each case. Further, the GI50 in the assay on SNB-19, in the assay on SW-620, in the assay with TK-10 and in the assay with UACC-257 was > 100 µM (inactive) each time.
With `CN(C)CCCN1C(=O)N(CCCN(C)C)c2c3cc(O)ccc3nc3c([N+](=O)[O-])ccc1c23`, the GI50 in the assay on HCT-15 is 13.1 µM; in the assay on Hs-578T it was 21.5 µM (inactive); in the assay on IGROV-1, 4.57 µM (inactive); with KM12 it was 14.9 µM (inactive); in the assay with LOX IMVI it was 10.4 µM (inactive); with MCF7, 11.3 µM (inactive). Also, the GI50 in the assay with MDA-MB-231 was 11.6 µM (inactive); in the assay on NCI-H460, 15.6 µM (inactive); in the assay with PC-3 it was 8.24 µM (inactive); in the assay with RXF 393 it was 11.9 µM (inactive); with SF-268, 10.3 µM (inactive); with SK-MEL-2, 15.6 µM (inactive). The GI50 in the assay on SNB-19 was 10.9 µM (inactive); with SW-620, 16 µM (inactive); in the assay on TK-10 it was 21.3 µM (inactive); in the assay on UACC-257 it was 30.8 µM (inactive).

(Values after ChEMBL document CHEMBL1201862, “PubChem BioAssay data set” (2004).)
